Data as given in PubChem BioAssay (NCI).
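Results reflect a 48-hour exposure of cells in 96-well plates to compound at five concentrations. Abbreviation: GI50, concentration required for 50% inhibition of growth. TGI is the concentration that stops growth completely.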

How the values were obtained:
Assay in all cases: NCI anticancer screen, dose series, 48 h
[1] = test system: HCC-2998 colon
[2] = test system: M14 melanoma
[3] = test system: NCI-H23 lung
[4] = test system: OVCAR-4 ovarian
[5] = test system: OVCAR-5 ovarian
[6] = test system: SF-268 CNS
[7] = test system: SNB-19 CNS
[8] = test system: SNB-75 CNS

Compound	GI50 [1] [µM]	TGI [1] [µM]	GI50 [2] [µM]	TGI [2] [µM]	GI50 [3] [µM]	TGI [3] [µM]	GI50 [4] [µM]	TGI [4] [µM]	GI50 [5] [µM]	TGI [5] [µM]	GI50 [6] [µM]	TGI [6] [µM]	GI50 [7] [µM]	GI50 [8] [µM]	TGI [8] [µM]	TGI [7] [µM]
ClCc1ccc(Cn2cnc3nc(Cl)nc(Cl)c32)cc1	1.62	3.18	1.31	2.83	1.84	3.65	1.57	3.03	1.8	3.54	0.629	1.43	3.01	0.656	1.48	–
Oc1ccc(/C=N/Nc2nnc(N/N=C/c3ccc(O)cc3O)c3ccccc23)c(O)c1	0.446	2.42	0.358	1.53	0.707	2.77	0.449	5.31	1.36	15.8	0.353	–	–	0.361	1.44	7.19
OCCn1c(-c2ccncc2)c(-c2ccc(F)cc2)c2ncccc21	> 25	> 25	> 25	> 25	> 25	> 25	> 25	> 25	> 25	> 25	> 25	> 25	> 25	> 25	> 25	> 25
CC(=O)OC1CCC2(C)C(=CCC3C4CC(CN5CC5)C(=O)C4(C)CCC32)C1 (centres undefined)	14	30.4	14.2	31.7	14	30	2.8	9.55	17.3	33.2	13.9	28.2	14.1	10.8	22.7	29.5
CC(C)C12CCC3(CCC4C(C)(C(=O)O)CCCC4(C)C3C1)C(CN)C2 (centres undefined)	–	36.2	–	> 100	–	72.1	–	> 100	–	90.4	–	> 100	–	–	> 100	> 100
O=C(Nc1cccc(C(F)(F)F)c1)Nc1ccc(OCc2nnc(-c3ccccc3)o2)c(F)c1	6.4	59.8	7.18	62.8	4.49	24.5	4	30.1	18.9	> 100	12.3	78.2	4.4	0.645	5.81	35.5
O=C1COc2c(CCNCCN(C(=O)CCNCCc3ccc(Cl)c(Cl)c3)C3CCCCC3)ccc(O)c2N1	18.7	35.1	16.6	31.8	18.1	33.9	15	28.9	13.6	28.4	14.7	30.3	15	3.65	19.4	31
Cc1c(-c2ccc(N3CCc4cccc(C(=O)Nc5nc6ccccc6s5)c4C3)nc2C(=O)O)cnn1CC12CC3CC(CC(C3)C1)C2	< 0.0329	1.34	7.7	25.4	13.4	35.4	6.72	33.2	11.4	32.4	8.05	24.8	4.37	9.35	36.8	19.6
Nc1ccc(N)c2c1C(=O)c1cccc([N+](=O)[O-])c1C2=O	0.373	1.49	3.37	> 100	0.44	2.73	11.9	> 100	8.19	> 100	5.07	> 89.4	2.4	2.13	24.5	> 30.4
COc1cc([C@H]2c3cc(O)c(OC)cc3C[C@]3(O)[C@@H]2CO[C@@H]3O)ccc1O	–	> 100	–	> 100	–	> 100	–	> 100	–	> 100	–	> 100	–	–	> 100	> 100
CS(=O)(=O)Nc1ccc(Nc2c3ccccc3nc3cc(Cl)ccc23)cc1	7.57	22.9	0.812	15.1	1.67	18.9	3.84	21.7	4.99	22.3	2.57	19.6	1.51	1.29	15.9	17.5
CC(=O)Nc1ccc(C(=O)COc2cccc(/C=C3\CCc4ccccc4C3=O)c2)cc1	17.7	32.2	14.4	34	14.4	43.4	1.01	26.1	19.6	36.3	19	52.4	17.4	13	64.7	51.7
Cc1cc2c(SCc3ccccc3Cl)nc(N)nc2nc1C	–	> 100	–	> 100	–	> 100	–	> 100	–	> 100	–	> 100	–	–	> 100	> 100
O=C(c1ccccc1)c1ccc(N2C(=O)C3C4c5ccccc5C(/C=C/C(=O)c5ccccn5)(c5ccccc54)C3C2=O)cc1 (centres undefined)	1.72	3.34	3.4	> 100	2.05	5.09	4.3	> 100	2	5.97	> 23.1	> 100	3.72	0.94	> 100	> 100
N#Cc1c(N/N=C/c2c(Cl)cccc2Cl)nc(N)nc1N1CCCC1	1.34	21	1.36	> 100	1.16	9.11	> 100	> 100	8.31	> 100	> 100	> 100	7.14	2.01	> 100	> 100
COc1ccc(C[C@H](N)C(=O)N[C@@H]2[C@@H](CO)OC(n3cnc4c(N(C)C)ncnc43)[C@@H]2O)cc1 (some centres undefined)	0.651	1.31	0.647	1.4	0.553	1.82	0.194	0.926	1.14	2.94	–	1.18	0.339	0.143	1.23	1.71

Compound	GI50 [1] [µM]	TGI [1] [µM]	GI50 [2] [µM]	TGI [2] [µM]	GI50 [3] [µM]	TGI [3] [µM]	GI50 [4] [µM]	TGI [4] [µM]	GI50 [5] [µM]	TGI [5] [µM]	GI50 [6] [µM]	TGI [6] [µM]	GI50 [7] [µM]	GI50 [8] [µM]	TGI [8] [µM]	TGI [7] [µM]
CC(C)c1nc(Cl)c(Cl)c(Cl)n1	–	15.7	–	19	–	22.3	–	39.1	–	17.7	–	9.29	–	–	25.8	36.2
COc1cc2c(cc1OCCCN1CCN(CCCn3c4ccccc4c4ccccc43)CC1)N=C[C@@H]1CCCN1C2=O	0.12	0.37	0.211	0.656	0.122	0.599	0.0374	0.357	0.0625	0.648	0.0362	0.289	0.274	< 0.0395	0.102	1.17
CC(C)(CCc1nc2ccccc2[nH]1)C(=O)O	–	> 100	–	> 100	–	> 100	–	> 100	–	> 100	–	> 100	–	–	> 100	> 100
Oc1ccc(CCNc2nc3ccccc3c3[nH]c4ccccc4c23)cc1	1.56	3.02	1.73	3.26	1.96	4.27	1.66	3.15	2.89	7.18	1.71	5.01	1.83	1.81	3.82	5.3
O=C1OC(c2ccccc2)=N/C1=C\c1ccc(N(CCCl)CCCl)cc1	–	> 100	–	> 100	–	> 100	–	> 100	–	> 100	–	> 100	–	–	> 100	> 100
O=C(COC(=O)[C@H](C[Se][Se]C[C@H](NC(=O)c1ccc(Br)cc1F)C(=O)OCC(=O)c1ccc(F)cc1)NC(=O)c1ccc(Br)cc1F)c1ccc(F)cc1	1.39	3.56	1.08	2.9	0.692	2.7	0.689	1.54	0.951	2.72	0.52	1.18	0.444	0.354	0.964	1.63
O=NNc1nc(-c2ccccn2)nc2ccccc12	–	41	–	22	–	> 100	–	> 100	–	> 100	–	> 100	–	–	> 100	> 100
CCC(=C(c1ccc(OCCN(CC)CC)cc1)c1ccc(OCCN(CC)CC)cc1)c1ccc(Cl)cc1	0.532	1.02	0.585	1.11	0.652	1.41	0.714	1.66	0.559	1.06	0.604	1.23	0.584	0.668	2.32	1.09
c1csc(-c2[nH]nc3c2CCc2ccccc2-3)c1	1.15	28.6	17.8	38	16.1	42.9	2.12	37.3	0.959	32.4	16.7	55	13.3	4.25	35	> 65.9
C/C(=N\NC(=O)c1ccncc1)c1ccccc1O	2.37	68.7	4.95	89.1	4.34	> 100	1.94	> 100	4.87	> 100	3.77	> 100	8.23	> 100	> 100	> 100
CCn1c(SC)nnc1-c1cc2c([nH]c3ccccc32)c(-c2cccc(O)c2)n1	4.94	62.3	1.48	12.5	4.51	50.6	2.75	13	10	43.1	3.42	25.5	4.16	1.3	3.94	47
N#Cc1c(N)nc(N2CCOCC2)c(C#N)c1-c1ccc(Cl)cc1Cl	13.3	28.2	18.3	42	19.7	48.4	21.8	78.2	23.1	71.2	14.2	35.6	15.9	6.31	30.4	60.9
CC(=O)Nc1ccc(C(=O)NN2C(=O)CSC2c2ccccc2)cc1 (centres undefined)	–	> 100	–	> 100	–	> 100	–	> 100	–	> 100	–	> 100	–	–	> 100	> 100
CN(C)C(=O)c1cc2cnc(Nc3ccc(N4CCNCC4)cn3)nc2n1C1CCCC1	27.8	> 100	15.7	39.1	13.9	63.2	22.4	86.8	1.45	73.1	14.1	38.3	14.2	10.2	22	> 100
O=C(NCc1cccnc1)c1ccc([N+](=O)[O-])o1	1.83	6.05	1.42	5.12	2.26	6.85	6.22	> 19.8	5.64	18	4.83	> 22.1	2.89	1.18	7.24	8.26
COc1cccc2c(Nc3ccc(C(=O)NCCN4CCNCC4)cc3)cc(-c3ccccc3)nc12	49.2	> 100	20.1	38.7	> 100	> 100	17.4	74.2	> 100	> 100	50.1	> 100	53.1	33.2	> 100	> 100
